The results in this text go back to patent US20240246918A1, “COMPOUNDS AND COMPOSITIONS AS EIF4E INHIBITORS AND THE USES THEREOF” (Ribometrix, Inc., priority 2022, published 2024).

In experiment [1] the target is T1, human eIF4E protein (Homo sapiens, UniProt P06730).
T1 construct: purchased Novus NBP-45314
The experiment in a line: Biochemical competitive binding assay (TR-FRET competition, EDA-m7GDP-ATTO-647N probe). As to conditions: read-out: hEIF4E TR-FRET IC50. On the procedure: The potencies of compounds binding to human eIF4E protein were measured using a 384-well time-resolved fluorescence resonance energy transfer (TR-FRET) competition assay. The assay was performed in assay buffer containing 50 mM HTEPES pH 7.5, 100 mM KCl, 0.02% Tween-20, and 0.1 mg/mL bovine serum albumin (BSA). The reaction volume was 10 μL and each reaction contained 4 nM recombinant 6×HIS-tagged human EIF4E protein (Novus, NBP-45314), 5 nM EDA-m7GDP-ATTO-647N (Jena Bioscience, NU-827-647N), 2.5 nM Europium conjugated Anti-6×HIS antibody (PerkinElmer, AD0402) and varying concentrations of compound. The final DMSO concentration was […].
Compounds were prepared using 11-point, 4-fold serial dilutions in DMSO and 100 nL of diluted compounds were transferred to 384-well assay-ready plates. Recombinant human EIF4E protein at 2× final concentration (8 nM) was pre-incubated with Eu-anti-6×HIS antibody at 2× final concentration (5 nM) for 5 minutes, then 5 μL of the protein solution was added to assay-ready plates. The protein/compound mix was incubated for 15 minutes, after which 5 μL of a solution containing EDA-m7GDP-ATTO-647N probe at 2× final concentration (10 nM) was added. After a subsequent 15-minute incubation, time-resolved fluorescence of assay plates was measured using a Clariostar Plus microplate reader (BMG Labtech) and TR-FRET values were calculated by taking a ratio of the 665 to 620 wavelength signals. After normalization to the average of DMSO control and maximum inhibition control wells, concentration-response data were plotted and standard 4-parameter curve fitting (PEI Signals) was utilized to determine IC50 values.
For orientation: Time-resolved FRET reads energy transfer from a long-lived donor to a nearby acceptor.

Experiment [2] deals with COLO 205 colorectal tumor cells. Briefly: Tumor cell viability inhibition assay (CellTiter-Glo 2.0, 72 hours). It counts as cell-based. As to conditions: COLO 205 cell viability. Here is the method:
The effect of compound treatment on COLO 205 tumor cell viability was assessed using cellular ATP quantification methods (Promega CellTiter-Glo® 2.0, G9241), as follows. Test compounds were prepared using 11-point, 4-fold serial dilutions in DMSO and 100 nL of diluted compounds were transferred to 384-well assay-ready plates. COLO 205 (ATCC, CCL-222) colorectal tumor cells were seeded to assay-ready plates in RPMI-1640 medium supplemented with 10% FBS at 1500 cells in a volume of 33.5 microliters per well. After 72 hours of compound treatment, cellular ATP was assessed by CellTiter-Glo® 2.0 Cell Viability Assay method, according to the manufacturer's instructions. Luminescence was measured using a Clariostar Plus microplate reader (BMG Labtech) or equivalent. After normalization to the average of DMSO control and maximum inhibition control wells, concentration-response data were plotted and standard 4-parameter curve fitting (PEI Signals) was utilized to determine IC50

What is called IC50 is the point on the concentration scale where inhibition reaches its midpoint.

T1 sequence (P06730 whole entry): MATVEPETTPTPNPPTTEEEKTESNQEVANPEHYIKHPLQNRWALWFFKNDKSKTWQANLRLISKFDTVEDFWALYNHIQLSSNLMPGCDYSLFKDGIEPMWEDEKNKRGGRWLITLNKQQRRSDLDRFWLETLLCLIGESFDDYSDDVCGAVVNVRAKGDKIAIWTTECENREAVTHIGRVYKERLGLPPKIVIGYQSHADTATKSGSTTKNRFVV

On to `Cc1cc(-c2cc(Cl)ccc2OCCn2c(C)nc3c(c2=O)C[C@@H](N2CCC(c4nccs4)CC2)CC3)c2scc(C(=O)O)c2n1` (single isomer, unassigned) [Compound 476], for which the 50% inhibitory concentration (IC50) in experiment [1] is under 0.1 µM; in experiment [2] (Homo sapiens, COLO 205, 72 h), under 5 µM.

In the case of `Cc1cc(-c2cc(Cl)ccc2OCCn2c(C)nc3c(c2=O)C[C@](C)(N2C[C@@H]4CC(F)(F)C[C@@H]4C2)CC3)c2scc(C(=O)O)c2n1` (stereo in doubt) [Compound 566], the 50% inhibitory concentration (IC50) in experiment [1] was under 0.1 µM; in experiment [2] (Homo sapiens, COLO 205, 72 h) it was under 5 µM.

For `Cc1cc(-c2cc(Cl)ccc2OCCn2c(C)nc3c(c2=O)CC(N2CCC(c4cccc(C(F)(F)F)c4)CC2)CC3)c2scc(C(=O)O)c2n1` (stereo not drawn) [Compound 127], the IC50 is under 0.1 µM in experiment [1] and under 5 µM in experiment [2] (Homo sapiens, COLO 205, 72 h).

For `Cc1cc(-c2cc(Cl)ccc2OCCn2c(C)nc3c(c2=O)C[C@H](N2CCCC(F)(F)CC2)CC32CC2)c2scc(C(=O)O)c2n1` (single isomer, unassigned) [Compound 545], the concentration for half-maximal inhibition (IC50) is under 0.1 µM in experiment [1] and under 5 µM in experiment [2] (Homo sapiens, COLO 205, 72 h).

Consider `Cc1cc(-c2cc(Cl)ccc2OCCn2c(C)nc3c(c2=O)CC(N2CCC4(CCN(CC(F)(F)F)C4)C2)CC3)c2scc(C(=O)O)c2n1` (single isomer, unassigned) [Compound 506], for which the IC50 in experiment [1] is under 0.1 µM; in experiment [2] it was under 5 µM.

As to `Cc1cc(-c2cc(Cl)ccc2OCCn2c(C)nc3c(c2=O)CC(C)(N2CCC(OC(F)(F)F)CC2)CC3)c2scc(C(=O)O)c2n1` (stereo not drawn) [Compound 536], the half-inhibitory concentration (IC50) in experiment [1] was under 0.1 µM; in experiment [2] (Homo sapiens, COLO 205, 72 h), under 5 µM.

With `Cc1cc(-c2cc(Cl)ccc2OCCn2c(C)nc3c(c2=O)C[C@H](N2CC[C@H](OC(F)(F)F)C(C)(C)C2)CC3)c2scc(C(=O)O)c2n1` (single isomer, unassigned) [Compound 394], the 50% inhibitory concentration (IC50) is under 0.1 µM in experiment [1] and under 5 µM in experiment [2] (Homo sapiens, COLO 205, 72 h).

For the molecule `Cc1cc(-c2cc(Cl)ccc2OCCn2c(C)nc3c(c2=O)C[C@@H](N2CCCC(F)(F)CC2)CC32CC2)c2scc(C(=O)O)c2n1` (single isomer, unassigned) [Compound 544], the IC50 in experiment [1] is under 0.1 µM; in experiment [2] (Homo sapiens, COLO 205, 72 h), under 5 µM.

In the case of `Cc1cc(-c2cc(Cl)ccc2OCCn2c(C)nc3c(c2=O)C[C@@H](N2CCC[C@@H](C(F)F)C2)CC3)c2scc(C(=O)O)c2n1` (single isomer, unassigned) [Compound 100], the half-maximal inhibitory concentration (IC50) was under 0.1 µM in experiment [1] and under 5 µM in experiment [2] (Homo sapiens, COLO 205, 72 h).

For `CO[C@H]1CCN([C@@H]2CCc3nc(C)n(CCOc4ccc(Cl)cc4-c4cc(C)nc5c(C(=O)O)csc45)c(=O)c3C2)CC12CC2` (single isomer, unassigned) [Compound 520], the concentration for half-maximal inhibition (IC50) in experiment [1] was under 0.1 µM; in experiment [2] (Homo sapiens, COLO 205, 72 h), under 5 µM.

On to `Cc1cc(-c2cc(Cl)ccc2OCCn2c(C)nc3c(c2=O)C[C@@H](N2CCC(O)CC2)CC3)c2scc(C(=O)O)c2n1` (single isomer, unassigned) [Compound 435], for which the IC50 in experiment [1] is under 0.1 µM; in experiment [2] (Homo sapiens, COLO 205, 72 h), under 5 µM.

Consider `Cc1cc(-c2cc(Cl)ccc2OCCn2c(C)nc3c(c2=O)CC(N)CC3)c2scc(C(=O)O)c2n1` (stereo not drawn) [Compound 411], for which the concentration for half-maximal inhibition (IC50) is under 0.1 µM in experiment [1] and under 5 µM in experiment [2] (Homo sapiens, COLO 205, 72 h).

In the case of `Cc1csc([C@H]2CCCN([C@H]3CCc4nc(C)n(CCOc5ccc(Cl)cc5-c5cc(C)nc6c(C(=O)O)csc56)c(=O)c4C3)C2)n1` (single isomer, unassigned) [Compound 482], the IC50 is under 0.1 µM in experiment [1] and under 5 µM in experiment [2] (Homo sapiens, COLO 205, 72 h).

Regarding `Cc1cc(-c2cc(Cl)ccc2OCCn2c(C)nc3c(c2=O)C[C@@H](N2CCC[C@H](C(F)(F)F)C2)CC3)c2scc(C(=O)O)c2n1` (single isomer, unassigned) [Compound 384], the IC50 in experiment [1] was under 0.1 µM; in experiment [2] (Homo sapiens, COLO 205, 72 h), under 5 µM.

As to `CO[C@H]1CCN([C@H]2CCc3nc(C)n(CCOc4ccc(Cl)cc4-c4cc(C)nc5c(C(=O)O)csc45)c(=O)c3C2)CC12CC2` (single isomer, unassigned) [Compound 522], the half-inhibitory concentration (IC50) in experiment [1] was under 0.1 µM; in experiment [2] (Homo sapiens, COLO 205, 72 h), under 5 µM.

With `CO[C@@H]1CCN([C@@H]2CCc3nc(C)n(CCOc4ccc(Cl)cc4-c4cc(C)nc5c(C(=O)O)csc45)c(=O)c3C2)CC12CC2` (single isomer, unassigned) [Compound 519], the half-inhibitory concentration (IC50) was under 0.1 µM in experiment [1] and over 20 µM in experiment [2] (Homo sapiens, COLO 205, 72 h).

Take `Cc1cc(-c2cc(Cl)ccc2OCCn2c(C)nc3c(c2=O)CC(N2CC(F)(F)C(F)(F)C2)CC3)c2scc(C(=O)O)c2n1` (stereo not drawn) [Compound 119]: the IC50 in experiment [1] is under 0.1 µM; in experiment [2] (Homo sapiens, COLO 205, 72 h), 5 to 20 µM.

`Cc1cc(-c2cc(Cl)ccc2OCCn2c(C)nc3c(c2=O)C[C@@](C)(N2CCC[C@]4(C2)CC4(F)F)CC3)c2scc(C(=O)O)c2n1` (single isomer, unassigned) [Compound 539]: the half-inhibitory concentration (IC50) in experiment [1] is under 0.1 µM; in experiment [2] (Homo sapiens, COLO 205, 72 h), under 5 µM.

`Cc1cc(-c2cc(Cl)ccc2OCCn2c(C)nc3c(c2=O)CC(N2CCC(OC(F)(F)F)CC2)CC32CC2)c2scc(C(=O)O)c2n1` (single isomer, unassigned) [Compound 379, 7-(5-chloro-2-(2-(2′-methyl-4′-oxo-6′-(4-(trifluoromethoxy)piperidin-1-yl)-6′,7′-dihydro-4′H-spiro[cyclopropane-1,8′-quinazolin]-3′(5′H)-yl)ethoxy)phenyl)-5-methylthieno[3,2-b]pyridine-3-carboxylic acid]: the half-inhibitory concentration (IC50) is under 0.1 µM in experiment [1] and under 5 µM in experiment [2] (Homo sapiens, COLO 205, 72 h).

For `Cc1cc(-c2cc(Cl)ccc2OCCn2c(C)nc3c(c2=O)C[C@H](N2[C@@H]4CC[C@H]2C[C@@H](OC(F)(F)F)C4)CC3)c2scc(C(=O)O)c2n1` (single isomer, unassigned) [Compound 398], the half-maximal inhibitory concentration (IC50) in experiment [1] was 0.1 to 0.5 µM; in experiment [2] (Homo sapiens, COLO 205, 72 h) it was over 20 µM.

On to `Cc1cc(-c2cc(Cl)ccc2OCCn2c(C)nc3c(c2=O)C[C@H](N2CCC(c4nc5ccc(F)cc5s4)CC2)CC3)c2scc(C(=O)O)c2n1` (single isomer, unassigned) [Compound 593], for which the IC50 was under 0.1 µM in experiment [1] and under 5 µM in experiment [2] (Homo sapiens, COLO 205, 72 h).

Take `Cc1cc(-c2cc(Cl)ccc2OCCn2c(C)nc3c(c2=O)C[C@@H](N2CCC[C@@]4(C2)CC4(F)F)CC3(C)C)c2scc(C(=O)O)c2n1` (single isomer, unassigned) [Compound 441]: the IC50 in experiment [1] was under 0.1 µM; in experiment [2] (Homo sapiens, COLO 205, 72 h), 5 to 20 µM.

For the molecule `Cc1cc(-c2cc(Cl)ccc2OCCn2c(C)nc3c(c2=O)C[C@H](N2CCC4(CCCO4)CC2)CC3)c2scc(C(=O)O)c2n1` (single isomer, unassigned) [Compound 420], the half-inhibitory concentration (IC50) in experiment [1] is under 0.1 µM; in experiment [2] (Homo sapiens, COLO 205, 72 h) it was 5 to 20 µM.

For the molecule `COC1CCN([C@H]2Cc3c(nc(C)n(CCOc4ccc(Cl)cc4-c4cc(C)nc5c(C(=O)O)csc45)c3=O)C3(CC3)C2)CC1` (single isomer, unassigned) [Compound 371], the IC50 in experiment [1] is under 0.1 µM; in experiment [2] (Homo sapiens, COLO 205, 72 h), under 5 µM.

Regarding `Cc1cc(-c2cc(Cl)ccc2OCCn2c(C)nc3c(c2=O)C[C@H](N2CCCC[C@H]2c2cccc(C(F)(F)F)c2)CC3)c2scc(C(=O)O)c2n1` (single isomer, unassigned) [Compound 587], the IC50 is under 0.1 µM in experiment [1] and under 5 µM in experiment [2] (Homo sapiens, COLO 205, 72 h).

As for `Cc1cc(-c2cc(Cl)ccc2OCCn2c(C)nc3c(c2=O)C[C@H](N2CCC(c4ccn(C)n4)CC2)CC3)c2scc(C(=O)O)c2n1` (single isomer, unassigned) [Compound 453], the concentration for half-maximal inhibition (IC50) was under 0.1 µM in experiment [1] and over 20 µM in experiment [2] (Homo sapiens, COLO 205, 72 h).

As for `Cc1cc(-c2cc(Cl)ccc2OCCn2c(C)nc3c(c2=O)C[C@H](N2CCCC[C@H]2c2cccc(F)c2)CC32CC2)c2scc(C(=O)O)c2n1` (single isomer, unassigned) [Compound 626, 7-(5-chloro-2-(2-(6′-(2-(3-fluorophenyl)piperidin-1-yl)-2′-methyl-4′-oxo-6′,7′-dihydro-4′H-spiro[cyclopropane-1,8′-quinazolin]-3′(5′H)-yl)ethoxy)phenyl)-5-methylthieno[3,2-b]pyridine-3-carboxylic acid], the IC50 is under 0.1 µM in experiment [1] and 5 to 20 µM in experiment [2] (Homo sapiens, COLO 205, 72 h).
